Assay results reported in patent US20250367321A1, “COMPOSITIONS AND METHODS INVOLVING ADGRG6” (The Regents of the University of California, priority 2022, published 2025).

Columns and labels:
[1] = system: adenyl cyclase (AC); test: cAMP levels after treatment with the AC inhibitor; assay type: cell-based, human; conditions: for cAMP levels upon aAdo treatment: basal condition
Description: (§1) CAMP is a well-known signaling molecule that initiates adipogenesis by increasing protein kinase A (pKA), which then phosphorylates early transcription factors, including C/EBPb. To test whether ADGRG6 might increase cAMP levels in preadipocytes, we measured CAMP levels in WT and ADGRG6 KO human preadipocytes in both basal condition and forskolin which is […], using ELISA. […] We also measured cAMP levels in human preadipocytes that overexpress ADGRG6. […] In order to test whether ADGRG6 can directly affect cAMP levels via adenyl cyclase (AC), that converts ATP to CAMP, we treated ADGRG6 overexpressing preadipocytes with 2′,5′-Dideoxyadenosine (aAdo), an inhibitor of AC. In the basal condition, cAMP levels were reduced in both WT and ADGRG6 overexpressing cells upon aAdo treatment (FIG. 4A). […] Furthermore, we also examined the downstream target of CAMP-PKA, CREB phosphorylation. […] In the stimulated condition, p-CREB increased in WT cells but not in ADGRG6 KO cells (FIG. 4B).

[2] = system: human preadipocytes; test: cAMP levels by ELISA, basal or forskolin-stimulated; assay type: cell-based; conditions: WT human preadipocytes, forskolin treatment
Description: as §1

Structure (SMILES) | cAMP levels upon aAdo treatment ([1]; ADGRG6 overexpressing preadipocytes) | increase of cAMP levels in ADGRG6 overexpressing preadipocytes compared to WT ([1]; Ado stimulated condition) [%] | cAMP levels upon aAdo treatment ([1]; WT preadipocytes) | increase in cAMP levels compared to the basal condition [2] [fold]
C[C@H]1O[C@@H](n2cnc3c(N)ncnc32)C[C@@H]1O [aAdo, 2′,5′-Dideoxyadenosine] | reduced | 25 | reduced | –
C=C[C@@]1(C)CC(=O)[C@]2(O)[C@@]3(C)[C@@H](O)CCC(C)(C)[C@@H]3[C@H](O)[C@H](OC(C)=O)[C@@]2(C)O1 [forskolin] | – | – | – | 2
